Laboratory results published in US7259236B2, “RBP1L1, a novel retinoblastoma binding protein-related gene encoding an antigenic epitope and methods of using thereof” (Regents of the University of California, priority 2001, dated 2007).

Key:
[1] = tested on: purified specific IgG binding to GST-RBP1L1 fusion protein; assay: Inhibition by synthetic peptides of purified specific IgG binding to GST-RBP1L1 fusion protein (Western blot); parameters: species or system human; conditions: peptide 5 μg/ml, purified specific IgG 0.5 μg/ml, fusion protein from clone 151
Experimental: To determine the minimal number of amino acids necessary for antibody binding, synthetic peptides of various lengths were tested for their ability to inhibit the binding of purified specific IgG to GST-RBP1L1 fusion protein by Western blot analysis. The synthetic peptides tested were:
[…] The antigen and purified IgG mixture was agitated at 4° C. overnight, and the inhibition of antibody binding was assessed by Western blotting using GST-RBP1L1 fusion protein as the target antigen.
The minimum number of amino acids required for the antibody binding was determined by testing various truncated synthetic peptides in ELISAs and on Western blots. The following set of peptides was generated by sequentially reducing the 10-amino acid peptide by one amino acid from either the amino terminus or the carboxyl terminus:
(§1) The wells of a 96-well ELISA plate were coated with 100 μl of a peptide (5 μg/ml). The specific human IgG (200 μg/ml) was serially diluted from 1:250 to 1:4,000.

purified specific IgG = assay: ELISA with synthetic peptide antigens; type: binding, human; conditions: ELISA and Western blot, truncated synthetic peptides; plate coated with 5 μg/ml peptide, IgG 200 μg/ml diluted 1:250 to 1:4,000
Experimental: The binding of purified specific IgG to synthetic peptides was assessed by ELISA. 96-well polystyrene plates (Reacti-Bind maleic anhydride-activated plates, Pierce) coated with each of the peptides (100 μl of 5 μg/ml) in PBS, incubated overnight at 4° C., and then blocked with 1% bovine serum albumin. Purified specific IgG (200 μg/ml) was serially diluted 1:250, 1:500, 1:1000, 1:2000, and 1:4000, then added in triplicate to peptide-coated wells (500 ng per well), and incubated for 3 hours at room temperature. Peroxidase-conjugated goat anti-human IgG (Pierce) was added at room temperature for 1 hour, followed by the addition of 400 μg/ml of o-phenylenediamine dihydrochloride in peroxide substrate solution. Reactivity was measured at 490 nm. Background absorbance without the primary antibody was subtracted from each sample's absorbance.
as §1

Sequence | ability to competitively inhibit the binding of purified specific IgG to the GST-RBP1L1 fusion protein [1] | epitope recognized by the purified specific human IgG (purified specific IgG)
IKPSLGSKK (listed as Homo sapiens) | completely inhibited | minimal epitope recognized
IKPSLGSKKN (listed as Homo sapiens) | completely inhibited | –
